This assay deals with recombinant human ACC2 (Homo sapiens (Human), UniProt O00763). Briefly: Measurement of inhibitory activity on human ACC2 (MALDI-TOF MS, acetyl CoA to malonyl CoA conversion). It counts as biochemical. To be noted: Tables 155-159. The method in brief:
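His-tagged human ACC2 (residues 27–2458) from baculovirus-infected Sf-9 cells was preincubated 1 h in pH 7.4 HEPES-KOH buffer with MgCl2, 6-10 mM potassium citrate, glutathione and BSA. Substrate solution held 1 mM ATP, 0.8 mM acetyl CoA and 25-50 mM bicarbonate. After 1–3 h at room temperature, malonyl CoA/(malonyl+acetyl CoA) was read by negative-mode MALDI-TOF MS; citrate, bicarbonate and time varied by enzyme lot.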
Chain of recombinant human ACC2 (O00763 27-2458): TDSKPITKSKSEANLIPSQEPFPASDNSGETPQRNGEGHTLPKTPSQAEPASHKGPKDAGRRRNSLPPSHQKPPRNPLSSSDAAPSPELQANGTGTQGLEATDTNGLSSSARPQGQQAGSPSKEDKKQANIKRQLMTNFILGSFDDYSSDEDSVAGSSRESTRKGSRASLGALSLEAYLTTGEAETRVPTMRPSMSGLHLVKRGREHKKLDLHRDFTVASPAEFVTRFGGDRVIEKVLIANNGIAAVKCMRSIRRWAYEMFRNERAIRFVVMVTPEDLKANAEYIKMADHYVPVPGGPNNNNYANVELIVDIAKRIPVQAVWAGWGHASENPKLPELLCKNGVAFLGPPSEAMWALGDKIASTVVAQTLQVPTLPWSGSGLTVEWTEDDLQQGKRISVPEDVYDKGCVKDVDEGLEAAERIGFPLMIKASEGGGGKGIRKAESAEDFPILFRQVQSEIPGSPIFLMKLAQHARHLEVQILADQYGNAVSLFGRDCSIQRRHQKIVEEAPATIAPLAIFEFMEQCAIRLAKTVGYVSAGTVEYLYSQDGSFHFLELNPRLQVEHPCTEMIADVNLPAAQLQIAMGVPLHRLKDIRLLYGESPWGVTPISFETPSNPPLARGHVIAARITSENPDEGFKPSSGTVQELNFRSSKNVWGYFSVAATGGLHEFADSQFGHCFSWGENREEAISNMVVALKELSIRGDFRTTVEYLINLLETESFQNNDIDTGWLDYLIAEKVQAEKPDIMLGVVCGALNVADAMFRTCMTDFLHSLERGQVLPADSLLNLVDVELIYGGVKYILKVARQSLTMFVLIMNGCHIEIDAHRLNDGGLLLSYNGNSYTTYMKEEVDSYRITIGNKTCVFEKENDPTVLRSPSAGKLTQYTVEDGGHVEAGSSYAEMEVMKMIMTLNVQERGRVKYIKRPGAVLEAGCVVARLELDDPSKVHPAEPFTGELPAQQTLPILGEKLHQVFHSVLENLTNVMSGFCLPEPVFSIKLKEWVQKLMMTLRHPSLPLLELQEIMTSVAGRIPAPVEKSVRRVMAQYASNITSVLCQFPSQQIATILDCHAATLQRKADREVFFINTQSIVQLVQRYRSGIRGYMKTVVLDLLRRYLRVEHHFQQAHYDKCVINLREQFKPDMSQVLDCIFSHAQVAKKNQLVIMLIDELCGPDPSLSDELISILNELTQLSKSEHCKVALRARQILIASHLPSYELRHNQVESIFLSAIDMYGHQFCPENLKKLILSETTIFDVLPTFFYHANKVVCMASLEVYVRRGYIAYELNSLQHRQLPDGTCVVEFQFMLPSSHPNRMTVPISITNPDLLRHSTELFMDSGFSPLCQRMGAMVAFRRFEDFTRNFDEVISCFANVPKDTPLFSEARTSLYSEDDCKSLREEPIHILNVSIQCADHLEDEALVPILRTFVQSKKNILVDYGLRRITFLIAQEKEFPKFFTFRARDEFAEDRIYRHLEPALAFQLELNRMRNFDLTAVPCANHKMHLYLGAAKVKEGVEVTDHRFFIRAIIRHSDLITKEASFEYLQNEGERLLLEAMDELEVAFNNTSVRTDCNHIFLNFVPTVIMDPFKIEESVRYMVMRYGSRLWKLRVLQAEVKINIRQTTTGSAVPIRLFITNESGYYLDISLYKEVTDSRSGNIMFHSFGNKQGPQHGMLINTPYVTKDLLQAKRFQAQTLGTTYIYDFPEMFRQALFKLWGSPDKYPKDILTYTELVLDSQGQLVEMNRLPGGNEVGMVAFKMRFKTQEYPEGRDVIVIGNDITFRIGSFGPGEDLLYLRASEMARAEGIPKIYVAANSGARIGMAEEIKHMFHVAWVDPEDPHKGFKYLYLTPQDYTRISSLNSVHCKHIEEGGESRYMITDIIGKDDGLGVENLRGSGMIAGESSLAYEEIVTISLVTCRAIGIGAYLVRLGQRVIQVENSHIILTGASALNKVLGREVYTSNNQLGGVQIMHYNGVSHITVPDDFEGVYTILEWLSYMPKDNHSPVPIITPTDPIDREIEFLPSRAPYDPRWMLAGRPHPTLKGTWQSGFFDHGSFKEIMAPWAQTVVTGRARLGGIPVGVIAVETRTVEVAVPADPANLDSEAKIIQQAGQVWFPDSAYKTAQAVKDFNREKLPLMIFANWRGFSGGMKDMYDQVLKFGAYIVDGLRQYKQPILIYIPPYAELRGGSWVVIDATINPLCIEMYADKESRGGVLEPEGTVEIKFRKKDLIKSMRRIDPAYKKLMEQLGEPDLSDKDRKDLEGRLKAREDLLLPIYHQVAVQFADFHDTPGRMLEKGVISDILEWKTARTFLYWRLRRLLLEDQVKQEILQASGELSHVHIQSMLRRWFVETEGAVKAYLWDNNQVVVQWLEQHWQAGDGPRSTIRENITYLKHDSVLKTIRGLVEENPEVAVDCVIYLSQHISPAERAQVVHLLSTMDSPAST
`CC(=O)N[C@@H](C)CO[C@H]1C[C@H](COc2ncnc(OCc3cc(C(F)(F)F)ccn3)c2Cl)C1` [Compound I-437]: the IC50 turned out to be 19 nM.
For `CC(=O)N[C@@H](C)CO[C@H]1C[C@H](COc2ncnc(OCc3ncc(Cl)s3)c2Cl)C1` [Compound I-439], the IC50 was 4 nM.
Regarding `CC(=O)N[C@@H](C)CO[C@H]1C[C@H](COc2ncnc3c2c(F)cn3CC2CC2(F)F)C1` (stereo partly shown) [Compound I-440], the IC50 amounted to 19 nM.
In the case of `CC(=O)N[C@@H](C)CO[C@H]1C[C@H](COc2ncnc(OCc3ncc(F)s3)c2Cl)C1` [Compound I-441], the IC50 turned out to be 12 nM.
For `CC(=O)N[C@@H](C)CO[C@H]1C[C@H](Oc2nccc3c(OCC4CC4)nccc23)C1` [Compound I-442], the IC50 is 35 nM.
Take `CC(=O)N[C@@H](C)CO[C@H]1C[C@H](COc2ncnc(OCc3nnc(C(F)(F)F)s3)c2Cl)C1` [Compound I-443]: the IC50 is 240 nM.
Under `CC(=O)N[C@@H](C)CO[C@H]1C[C@H](COc2ncnc3c2ccn3CCC2CC2)C1` [Compound I-444] stands 51 nM; under `CC(=O)N[C@@H](C)CO[C@H]1C[C@H](Oc2nccc3c(OCc4ccccc4)nccc23)C1` [Compound I-445], 14 nM.
`CC(=O)N[C@@H](C)CO[C@H]1CC[C@H](Oc2ncnc(OCc3ccc(F)cn3)c2Cl)CC1` [Compound I-446]: the IC50 was 77 nM.
Under `CC(=O)N[C@@H](C)CO[C@H]1C[C@H](COc2nc(C)nc3c2ccn3CC2CC2)C1` [Compound I-447] stands 76 nM; under `CC(=O)N[C@@H](C)CO[C@H]1C[C@H](COc2ncnc3c2ccn3-c2ccccc2)C1` [Compound I-448], 400 nM; under `CC(=O)N[C@@H](C)CO[C@H]1C[C@H](COc2ncnc3c2ccn3CC2CCCCC2)C1` [Compound I-449], 51 nM.
Regarding `CC(=O)N[C@@H](C)CO[C@H]1C[C@H](COc2ncnc3c2c(F)cn3CC2CC2)C1` [Compound I-450], the IC50 was 14 nM.
Turning to `CC(=O)N[C@@H](C)CO[C@H]1C[C@H](COc2ncnc3c2ccn3C2CCCCC2)C1` [Compound I-451], the IC50 was 40 nM.
Consider `CC(=O)N[C@@H](C)CO[C@H]1C[C@H](COc2ncnc(NC(=O)c3ccccc3)c2Cl)C1` [Compound I-452], for which the IC50 was found to be 109 nM.
Take `CCn1ccc2c(OC[C@H]3C[C@H](OC[C@H](C)NC(C)=O)C3)ncnc21` [Compound I-453]: the half-inhibitory concentration (IC50) was determined as 610 nM.
For the compound `CC(=O)N[C@@H](C)CO[C@H]1C[C@H](COc2ncnc3c2cc(C)n3CC2CC2)C1` [Compound I-454], the IC50 turned out to be 87 nM.
For `CC(=O)N[C@@H](C)CO[C@H]1CC[C@H](Oc2ncnc(OCc3ncc(Cl)s3)c2Cl)CC1` [Compound I-455] the value was 50 nM.
For `CC(=O)N[C@@H](C)CO[C@H]1C[C@H](c2nc3cnc(OCc4ccccc4)cc3o2)C1` [Compound I-456], the IC50 came out at 280 nM.
As to `CC(=O)N[C@@H](C)CO[C@]1(C)C[C@@H](COc2ncnc(OCc3ccc(F)cn3)c2Cl)C1` [Compound I-457], the IC50 came to 19 nM.
For the compound `CC(=O)N[C@@H](C)CO[C@H]1C[C@H](COc2nccc3c2CCN3CC2CC2)C1` [Compound I-458], the IC50 turned out to be 32 nM.
As for `CC(=O)N[C@@H](C)CO[C@H]1C[C@H](COc2ncnc(OCc3ccc(F)cn3)c2F)C1` [Compound I-459], the IC50 amounted to 16 nM.
In the case of `CC(=O)N[C@@H](C)CO[C@H]1C[C@H](COc2ncnc(OCc3cc(Cl)ccn3)c2F)C1` [Compound I-460], the IC50 was found to be 4 nM.
With `CC(=O)N[C@@H](C)CO[C@H]1C[C@H](COc2ncnc(OCc3ccc(F)cc3)c2F)C1` [Compound I-461], the IC50 came out at 4 nM.
Take `CC(=O)N[C@@H](C)CO[C@H]1C[C@H](COc2ncnc(-c3nc4ccccc4o3)c2Cl)C1` [Compound I-462]: the IC50 came to 90 nM.
Turning to `CC(=O)N[C@@H](C)CO[C@H]1C[C@H](COc2ncnc(OCC3CCCCO3)c2Cl)C1` (stereo partly shown) [Compound I-463], the IC50 was 17 nM.
Consider `CC(=O)N[C@@H](C)CO[C@H]1C[C@H](COc2ncnc(OCc3cncs3)c2Cl)C1` [Compound I-464], for which the IC50 is 36 nM.
Take `CC(=O)N[C@@H](C)CO[C@H]1C[C@H](COc2nccc3c2cnn3CC2CC2(F)F)C1` (stereo partly shown) [Compound I-465]: the IC50 amounted to 160 nM.
Regarding `CC(=O)N[C@@H](C)CO[C@H]1C[C@H](COc2ncnc(OC3(c4ccccc4)CC3)c2Cl)C1` [Compound I-466], the IC50 stood at 179 nM.
For the compound `CC(=O)N[C@@H](C)CO[C@H]1C[C@H](COc2ncnc(OCc3ccc(Cl)cn3)c2F)C1` [Compound I-467], the IC50 came out at 7 nM.
Under `CC(=O)N[C@@H](C)CO[C@H]1C[C@H](COc2ncnc(NC(=O)C3CCCCC3)c2Cl)C1` [Compound I-468] stands 368 nM; under `CC(=O)N[C@@H](C)CO[C@H]1C[C@H](Cn2ccc3c(OCc4ccccc4)ncnc32)C1` [Compound I-469], 596 nM; under `CC(=O)N[C@@H](C)CO[C@H]1C[C@H](Cn2ccc3c(OCc4cc(Cl)ccn4)ncnc32)C1` [Compound I-470], 426 nM.
Regarding `CC(=O)N[C@@H](C)CO[C@H]1C[C@H](COc2ncnc3c2ccn3C(C)C)C1` [Compound I-471], the IC50 turned out to be 159 nM.
For `CC(=O)N[C@@H](C)CO[C@H]1C[C@H](COc2ncnc3c2ccn3Cc2ccccc2F)C1` [Compound I-472], the 50% inhibitory concentration (IC50) is 26 nM.
In the case of `CC(=O)N[C@@H](C)CO[C@H]1C[C@H](COc2ncnc3c2ccn3Cc2cccc(F)c2)C1` [Compound I-473], the IC50 was found to be 28 nM.
On to `CC(=O)N[C@@H](C)CO[C@H]1C[C@H](COc2ncnc3c2ccn3Cc2ccc(F)cc2)C1` [Compound I-474], for which the IC50 came out at 16 nM.
On to `CC(=O)N[C@@H](C)CO[C@H]1C[C@H](COc2ccc3nc(OC4CC4)n(C)c3n2)C1` [Compound I-475], for which the IC50 worked out at 540 nM.
For `CC(=O)N[C@@H](C)CO[C@H]1C[C@H](COc2ccc3nc(OCC4CC4)n(C)c3n2)C1` [Compound I-476], the IC50 came to 74 nM.
For `CC(=O)N[C@@H](C)CO[C@H]1C[C@H](COc2ccc3nc(OCC4CC4(F)F)n(C)c3n2)C1` (stereo partly shown) [Compound I-477] the value was 247 nM; for `CC(=O)N[C@@H](C)CO[C@H]1C[C@H](COc2ccc3nc(OC4CC(F)(F)C4)n(C)c3n2)C1` [Compound I-478], 116 nM; for `CCOc1nc2ccc(OC[C@H]3C[C@H](OC[C@H](C)NC(C)=O)C3)nc2n1CC` [Compound I-479], 563 nM.
Take `CC(=O)N[C@@H](C)CO[C@H]1C[C@H](COc2ccc3nc(OCc4ccccc4)n(C)c3n2)C1` [Compound I-480]: the IC50 came out at 41 nM.
For the compound `CC(=O)N[C@@H](C)CO[C@H]1C[C@H](COc2ccc3nc(Oc4ccccc4)n(C)c3n2)C1` [Compound I-481], the IC50 was found to be 298 nM.
`CC(=O)N[C@@H](C)CO[C@H]1C[C@H](COc2ccc3nc(OCCC(C)C)n(C)c3n2)C1` [Compound I-482]: the IC50 was 87 nM.
In the case of `CCCOc1nc2ccc(OC[C@H]3C[C@H](OC[C@H](C)NC(C)=O)C3)nc2n1C` [Compound I-483], the IC50 was found to be 81 nM.
As to `CC(=O)N[C@@H](C)CO[C@H]1C[C@H](COc2ccc3nc(OCC(F)F)n(C)c3n2)C1` [Compound I-484], the IC50 amounted to 204 nM.
Turning to `CC(=O)N[C@@H](C)CO[C@H]1C[C@H](COc2ccc3nc(OC[C@H](C)F)n(C)c3n2)C1` [Compound I-485], the IC50 is 180 nM.
Turning to `CC(=O)N[C@@H](C)CO[C@H]1C[C@H](COc2cc(C)c3nc(OCC4CC4)n(C)c3n2)C1` [Compound I-486], the IC50 was 724 nM.
For `CCOc1nc2ccc(OC[C@H]3C[C@H](OC[C@H](C)NC(C)=O)C3)c(F)c2n1C` [Compound I-487], the IC50 was 363 nM.
For `CCOc1nc2cc(Cl)c(OC[C@H]3C[C@H](OC[C@H](C)NC(C)=O)C3)nc2n1C` [Compound I-488] the value was 314 nM; for `CC(=O)N[C@@H](C)CO[C@H]1C[C@H](COc2ccc3nc(OCC4CC4)n(C)c3c2)C1` [Compound I-489], 843 nM; for `CCOc1nc2ccc(OC[C@H]3C[C@H](OC[C@H](C)NC(C)=O)C3)c(Cl)c2n1C` [Compound I-490], 480 nM.
As for `CCOc1nc2ccc(O[C@H]3CC[C@H](OC[C@H](C)NC(C)=O)CC3)nc2n1C` [Compound I-491], the IC50 stood at 51 nM.
As for `CCOc1nc2ccc(O[C@H]3CC[C@H](OC[C@H](C)NC(C)=O)CC3)nc2n1CC` [Compound I-493], the IC50 worked out at 70 nM.
For the compound `CC(=O)N[C@@H](C)CO[C@H]1CC[C@H](Oc2ccc3nc(OC(C)C)n(C)c3n2)CC1` [Compound I-494], the IC50 was found to be 46 nM.
Regarding `CC(=O)N[C@@H](C)CO[C@H]1CC[C@H](Oc2ccc3nc(OC4CC4)n(C)c3n2)CC1` [Compound I-495], the concentration for half-maximal inhibition (IC50) came to 74 nM.
Under `CC(=O)N[C@@H](C)CO[C@H]1CC[C@H](Oc2ccc3nc(OCC4CC4)n(C)c3n2)CC1` [Compound I-496] stands 24 nM.
Under `CC(=O)N[C@@H](C)CO[C@H]1CC[C@H](Oc2ccc3nc(OC4CC(F)(F)C4)n(C)c3n2)CC1` [Compound I-497] stands 15 nM.
As for `CC(=O)N[C@@H](C)CO[C@H]1CC[C@H](Oc2ccc3nc(OCC(F)(F)F)n(C)c3n2)CC1` [Compound I-498], the IC50 stood at 13 nM.
Regarding `CC(=O)N[C@@H](C)CO[C@H]1CC[C@H](Oc2ccc3nc(OCC(F)F)n(C)c3n2)CC1` [Compound I-499], the IC50 was 40 nM.
For `CC(=O)N[C@@H](C)CO[C@H]1CC[C@H](Oc2ccc3nc(OCC(C)(F)F)n(C)c3n2)CC1` [Compound I-500] the value was 21 nM; for `CC(=O)N[C@@H](C)CO[C@H]1CC[C@H](Oc2ccc3nc(OCc4ccccc4)n(C)c3n2)CC1` [Compound I-501], 9 nM.
`CC(=O)N[C@@H](C)CO[C@H]1CC[C@H](Oc2ccc3nc(OC4(C)CC4)n(C)c3n2)CC1` [Compound I-502]: the IC50 is 62 nM.

Broadly, the IC50 is the concentration needed to halve the response being measured.

The values above are taken from patent US10150728B2, “Alkylene derivatives” (Shionogi & Co., Ltd., priority 2013, dated 2018).
